# Test system: K24384-001-R-PDC complex spheroid growth
# Test: Anticancer human tumor K24384-001-R-PDC patient-derived pancreatic adenocarcinoma cell line growth inhibition [AhR]
# Details: for IC50: curve of first compound; for viability, T/C: stronger effect = lower value
# Description: Multicellular complex tumor spheroid response to aryl hydrocarbon receptor antagonists in combination with a variety of drugs and investigational agents in selected tumor cell lines
# The current study was undertaken to assess response to aryl hydrocarbon receptor antagonists in combination with standard-of-care drugs and investigational agents in solid tumor complex spheroid models. Complex spheroids include a stromal component modeled by human endothelial cells (HUVEC) and fibroblasts modeled by human mesenchymal stem cells (MSCs). The concentration ranges selected for each drug and investigational agent were based upon clinically achievable concentrations if the clinical Cmax of the agent was known.
# Compounds. The drugs and investigational agents: BAY 2416964 (NSC825713), GNF351 (NSC835774), CH-223191 (NSC835775), CPI-455 (NSC825282), aza-TdCyd (NSC777586), decitabine (NSC127716), belinostat (NSC758774), entinostat (NSC756642), pevonedistat (NSC761192), tazemetostat (NSC777109), talazoparib (NSC765396), olaparib (NSC753686), selinexor (NSC780203), nedisertib (M3814, NSC802822), bortezomib (NSC756655), venetoclax (NSC766270), doxorubicin (NSC123127), elimusertib (BAY189344, NSC800525), ceralasertib (AZD6738, NSC777638), TAK-243 (NSC785004), alisertib (NSC759677), etoposide (NSC141540), topotecan (NSC609699), eribulin (NSC707389), gemcitabine (NSC613327), carboplatin (NSC241240), cisplatin (NSC119875), and SN-38 (NSC673596) were obtained from the National Cancer Institute (NCI) Developmental Therapeutics Program Chemical Repository (32). The FDA-approved anticancer drug set is available from the Developmental Therapeutics Program at https://dtp.cancer.gov/organization/dscb/obtaining/available plates.htm. […] The stock solutions were prepared in dimethyl sulfoxide (DMSO, Sigma-Aldrich, St. Louis, MO, cat. D2650), except for the platinum compounds which were prepared in saline (Quality Biological, Gaithersburg, MD, cat. 114-055-101), at 800-fold the tested concentration and stored at -70 degrees C prior to their use. All drugs and investigational agents were tested over a range starting from a high concentration at or near the clinical Cmax and decreasing in half-log increments. If the clinical Cmax for an agent had not been determined, the highest concentration tested was 10 microM (Table 1).
# Cell Culture. All cells were maintained in an incubator at 37 degrees C and 5% CO2 with 95% humidity. The PDC lines were cultured according to standard operating procedures established by the NCI PDMR (https://pdmr.cancer.gov). Briefly, all PDCs were thawed and cultured in Matrigel-coated flasks prepared with a working solution of 1X Ham's F-12 nutrient mix, without supplementation (Invitrogen, Waltham, MA, cat. 11765054), 100 U/mL penicillin-streptomycin (Invitrogen, cat. 15140122), and 2.5% Matrigel (Corning Inc., Corning, NY, cat. 354248) for the first three passages. All PDCs were cultured in complete DMEM/F-12 media containing advanced DMEM/F-12 (Invitrogen, cat. 12634028), 4.9% defined fetal bovine serum, heat inactivated (HyClone Laboratories Inc., Logan, UT, cat. SH30070.03HI), 389 ng/mL hydrocortisone (Sigma-Aldrich, cat. H4001), 9.7 ng/mL human EGF recombinant protein (Invitrogen, cat. PHG0313), 23.4 microg/mL adenine (Sigma-Aldrich, cat. A2786), 97.3 U/mL penicillin-streptomycin (Invitrogen, cat. 15140122), 1.9 mM L-glutamine (Invitrogen, cat. 25030081), and 9.7 microM Y-27632 dihydrochloride (Tocris Bioscience, Bristol, United Kingdom, cat. 1254). The PDCs were cultured in complete DMEM/F12 media without 10 microM Y-27632 dihydrochloride for at least two passages prior to the screen. The established cell lines NCI-H1341 and […] were cultured in DMEM/F-12, HEPES (Invitrogen, cat. 11330032), 5% defined fetal bovine serum (HyClone Laboratories Inc., cat. SH30070.03), ITS premix universal culture supplement [insulin (5 microg/mL), transferrin (5 microg/mL), and selenious acid (5 ng/mL)] […]
# [1] = second compound 0.1 µM, first compound 0.0316 µM
# [2] = second compound 0.1 µM, first compound 0.1 µM
# [3] = second compound 0.1 µM, first compound 0.316 µM
# [4] = second compound 0.1 µM, first compound 1 µM
# [5] = second compound 0.1 µM, first compound 3.16 µM
# [6] = second compound 0.1 µM, first compound 10 µM
# [7] = second compound 0.316 µM, first compound 0.0316 µM
# [8] = second compound 0.316 µM, first compound 0.1 µM
# [9] = second compound 0.316 µM, first compound 0.316 µM
# [10] = second compound 0.316 µM, first compound 1 µM
# [11] = second compound 0.316 µM, first compound 3.16 µM
# [12] = second compound 0.316 µM, first compound 10 µM
# [13] = second compound 1 µM, first compound 0.0316 µM
# [14] = second compound 1 µM, first compound 0.1 µM
# [15] = second compound 1 µM, first compound 0.316 µM
# [16] = second compound 1 µM, first compound 1 µM
# [17] = second compound 1 µM, first compound 3.16 µM
# [18] = second compound 1 µM, first compound 10 µM
# [19] = second compound 3.16 µM, first compound 0.0316 µM
# [20] = second compound 3.16 µM, first compound 0.1 µM
# [21] = second compound 3.16 µM, first compound 0.316 µM
# [22] = second compound 3.16 µM, first compound 1 µM
# [23] = second compound 3.16 µM, first compound 3.16 µM
# [24] = second compound 3.16 µM, first compound 10 µM
# [25] = second compound 10 µM, first compound 0.0316 µM
# [26] = second compound 10 µM, first compound 0.1 µM
# [27] = second compound 10 µM, first compound 0.316 µM
# [28] = second compound 10 µM, first compound 1 µM
# [29] = second compound 10 µM, first compound 3.16 µM
# [30] = second compound 10 µM, first compound 10 µM
# 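Throughout, for viability, T/C: percent of DMSO vehicle-treated spheroid viability set as 100%.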
compound,measurement,setting,value
CCc1c2c(nc3ccc(O)cc13)-c1cc3c(c(=O)n1C2)COC(=O)[C@]3(O)CC + CC(CO)NC(=O)c1cc(-c2ccc(Cl)cc2)nn(-c2cnn(C)c2)c1=O,IC50,second compound 0.1 µM,9.38 nM
same,IC50,second compound 0.316 µM,6.85 nM
same,IC50,second compound 1 µM,8.65 nM
same,IC50,second compound 3.16 µM,11.5 nM
same,IC50,second compound 10 µM,19.8 nM
same,"viability, T/C","second compound 0.1 µM, first compound 0.000949 µM",53.8%
same,"viability, T/C","second compound 0.1 µM, first compound 0.003 µM",58.1%
same,"viability, T/C","second compound 0.1 µM, first compound 0.00949 µM",52.2%
same,"viability, T/C","second compound 0.1 µM, first compound 0.03 µM",36.1%
same,"viability, T/C","second compound 0.1 µM, first compound 0.0949 µM",40.8%
same,"viability, T/C","second compound 0.1 µM, first compound 0.3 µM",26.7%
same,"viability, T/C","second compound 0.316 µM, first compound 0.000949 µM",70.6%
same,"viability, T/C","second compound 0.316 µM, first compound 0.003 µM",53.1%
same,"viability, T/C","second compound 0.316 µM, first compound 0.00949 µM",48.9%
same,"viability, T/C","second compound 0.316 µM, first compound 0.03 µM",38.2%
same,"viability, T/C","second compound 0.316 µM, first compound 0.0949 µM",34.6%
same,"viability, T/C","second compound 0.316 µM, first compound 0.3 µM",25%
same,"viability, T/C","second compound 1 µM, first compound 0.000949 µM",63.5%
same,"viability, T/C","second compound 1 µM, first compound 0.003 µM",56.4%
same,"viability, T/C","second compound 1 µM, first compound 0.00949 µM",51.5%
same,"viability, T/C","second compound 1 µM, first compound 0.03 µM",34.8%
same,"viability, T/C","second compound 1 µM, first compound 0.0949 µM",27.9%
same,"viability, T/C","second compound 1 µM, first compound 0.3 µM",21%
same,"viability, T/C","second compound 3.16 µM, first compound 0.000949 µM",55.8%
same,"viability, T/C","second compound 3.16 µM, first compound 0.003 µM",52.6%
same,"viability, T/C","second compound 3.16 µM, first compound 0.00949 µM",54.6%
same,"viability, T/C","second compound 3.16 µM, first compound 0.03 µM",34.6%
same,"viability, T/C","second compound 3.16 µM, first compound 0.0949 µM",26.6%
same,"viability, T/C","second compound 3.16 µM, first compound 0.3 µM",19.3%
same,"viability, T/C","second compound 10 µM, first compound 0.000949 µM",63.9%
same,"viability, T/C","second compound 10 µM, first compound 0.003 µM",54.4%
same,"viability, T/C","second compound 10 µM, first compound 0.00949 µM",57.3%
same,"viability, T/C","second compound 10 µM, first compound 0.03 µM",47%
same,"viability, T/C","second compound 10 µM, first compound 0.0949 µM",30.3%
same,"viability, T/C","second compound 10 µM, first compound 0.3 µM",19.4%
Nc1ccn(C2OC(CO)C(O)C2(F)F)c(=O)n1 (stereo not given) + CC(CO)NC(=O)c1cc(-c2ccc(Cl)cc2)nn(-c2cnn(C)c2)c1=O,IC50,second compound 0.1 µM,570 nM
same,IC50,second compound 0.316 µM,666 nM
same,IC50,second compound 1 µM,767 nM
same,IC50,second compound 3.16 µM,841 nM
same,IC50,second compound 10 µM,1170 nM
same,"viability, T/C",[1],81.9%
same,"viability, T/C",[2],90.8%
same,"viability, T/C",[3],65.8%
same,"viability, T/C",[4],35.6%
same,"viability, T/C",[5],31.8%
same,"viability, T/C",[6],28.1%
same,"viability, T/C",[7],92.2%
same,"viability, T/C",[8],92.5%
same,"viability, T/C",[9],70.7%
same,"viability, T/C",[10],38.6%
same,"viability, T/C",[11],30.7%
same,"viability, T/C",[12],27%
same,"viability, T/C",[13],90.9%
same,"viability, T/C",[14],77.4%
same,"viability, T/C",[15],69.8%
same,"viability, T/C",[16],45.3%
same,"viability, T/C",[17],26.7%
same,"viability, T/C",[18],26.4%
same,"viability, T/C",[19],77.5%
same,"viability, T/C",[20],79.8%
same,"viability, T/C",[21],72.4%
same,"viability, T/C",[22],45.6%
same,"viability, T/C",[23],30.1%
same,"viability, T/C",[24],24.8%
same,"viability, T/C",[25],82.9%
same,"viability, T/C",[26],80.5%
same,"viability, T/C",[27],81.6%
same,"viability, T/C",[28],52.3%
same,"viability, T/C",[29],36%
same,"viability, T/C",[30],33.9%
O=C(c1cc(Cc2n[nH]c(=O)c3ccccc23)ccc1F)N1CCN(C(=O)C2CC2)CC1 + CC(CO)NC(=O)c1cc(-c2ccc(Cl)cc2)nn(-c2cnn(C)c2)c1=O,IC50,second compound 0.1 µM,> 10000 nM
same,IC50,second compound 0.316 µM,> 10000 nM
same,IC50,second compound 1 µM,> 10000 nM
same,IC50,second compound 3.16 µM,> 10000 nM
same,IC50,second compound 10 µM,> 10000 nM
same,"viability, T/C",[1],92.9%
same,"viability, T/C",[2],95.3%
same,"viability, T/C",[3],89.2%
same,"viability, T/C",[4],76.7%
same,"viability, T/C",[5],66.8%
same,"viability, T/C",[6],62.2%
same,"viability, T/C",[7],108%
same,"viability, T/C",[8],99.6%
same,"viability, T/C",[9],103%
same,"viability, T/C",[10],82.3%
same,"viability, T/C",[11],73.3%
same,"viability, T/C",[12],70.4%
same,"viability, T/C",[13],99.8%
same,"viability, T/C",[14],104%
same,"viability, T/C",[15],99.2%
same,"viability, T/C",[16],72.3%
same,"viability, T/C",[17],76%
same,"viability, T/C",[18],67.9%
same,"viability, T/C",[19],90.6%
same,"viability, T/C",[20],96.7%
same,"viability, T/C",[21],83.5%
same,"viability, T/C",[22],78.3%
same,"viability, T/C",[23],63.5%
same,"viability, T/C",[24],59.2%
same,"viability, T/C",[25],74.5%
same,"viability, T/C",[26],72.7%
same,"viability, T/C",[27],74%
same,"viability, T/C",[28],71.9%
same,"viability, T/C",[29],65.8%
same,"viability, T/C",[30],69.7%

# From PubChem BioAssay AID1919009 (Molecular Pharmacology Branch, DTP, NCI, 2023)
